Measurements taken from publication PMC3464284, “Virtual Screening as a Strategy for the Identification of Xenobiotics Disrupting Corticosteroid Action” (PLoS ONE, 2012).
Where a name gives a salt, the structure may show the parent alone. Read-outs that look alike come from different tables or passages of the source. Blank lines part the entries; values can stand above or below the molecule they belong to.

Assays:
Type in all cases: biochemical
11β-HSD2 [1] = target: T1, 11β-HSD2 (Homo sapiens, UniProt P80365); experiment: radiolabeled cortisol to cortisone conversion, HEK-293 lysate; conditions: for 11β-HSD2 activity (% of control): 20 µM, […] cortisol, […] NAD+, […]°C, […] min
T1 construct: gene HSD11B2; stably expressed in HEK-293 cells, cell lysate
T1 sequence (P80365 1-405): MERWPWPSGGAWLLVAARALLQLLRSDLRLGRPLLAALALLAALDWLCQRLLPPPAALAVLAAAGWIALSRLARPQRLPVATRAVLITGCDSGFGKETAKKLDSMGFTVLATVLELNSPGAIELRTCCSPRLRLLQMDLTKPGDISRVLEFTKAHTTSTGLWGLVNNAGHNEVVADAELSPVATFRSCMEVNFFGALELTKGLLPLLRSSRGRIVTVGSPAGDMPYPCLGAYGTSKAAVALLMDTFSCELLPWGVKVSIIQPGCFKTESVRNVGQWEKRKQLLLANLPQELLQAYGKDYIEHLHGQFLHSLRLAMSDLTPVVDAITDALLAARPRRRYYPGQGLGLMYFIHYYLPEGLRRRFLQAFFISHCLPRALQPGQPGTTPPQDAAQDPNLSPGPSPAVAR

11β-HSD1 [2] = target: T2, 11β-HSD1 (Homo sapiens, UniProt P28845); experiment: radiolabeled cortisone to cortisol conversion, HEK-293 lysate; conditions: for 11β-HSD1 activity (% of control): 20 µM, […] cortisone, […] NADPH, […]°C, […] min; for remaining activity at 20 µM: read-out: 11β-HSD1 activity (% of control)
T2 construct: gene HSD11B1; stably expressed in HEK-293 cells, cell lysate
Source text: radiolabeled cortisone to cortisol conversion, HEK-293 lysate on 11β-HSD1

11β-HSD1 [3] = target: T2, 11β-HSD1; experiment: as above
11β-HSD2 [4] = target: T1, 11β-HSD2; experiment: radiolabeled cortisol to cortisone conversion, HEK-293 lysate
[5] = read-out: 11β-HSD2 activity (% of control)

T2 sequence (P28845 whole entry): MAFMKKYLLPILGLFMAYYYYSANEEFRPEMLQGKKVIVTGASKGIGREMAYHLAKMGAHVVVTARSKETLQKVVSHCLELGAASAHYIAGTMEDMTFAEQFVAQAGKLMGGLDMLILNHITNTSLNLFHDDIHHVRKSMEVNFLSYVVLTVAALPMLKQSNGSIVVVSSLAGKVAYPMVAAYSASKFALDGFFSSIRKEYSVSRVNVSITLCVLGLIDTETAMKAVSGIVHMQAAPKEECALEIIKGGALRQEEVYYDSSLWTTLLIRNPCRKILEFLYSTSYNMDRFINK

- remaining activity at 20 µM (11β-HSD2 [1]; read-out: remaining activity at 20 μM): 80 ± 7%
Compound: CCO[Si](CCCS)(OCC)OCC [3-mercaptopropyl triethoxysilane]

Compound: CC[C@H]1CN2CCc3cc(OC)c(OC)cc3[C@@H]2C[C@@H]1C[C@H]1NCCc2cc(O)c(OC)cc21 [(−) Cephaeline dihydrochloride]
- 11β-HSD2 activity (% of control) (11β-HSD2 [1]): 74±2
- 11β-HSD1 activity (% of control) (11β-HSD1 [2]): 100±2

Compound: CCO[Si](CCCSSSSCCC[Si](OCC)(OCC)OCC)(OCC)OCC [AB110873, bis[3-(triethoxysilyl)propyl] tetrasulfide]
- 11β-HSD1 activity (% of control) (11β-HSD1 [2]): 79±3

Compound: C[C@]12CC[C@H](O)C[C@H]1CC[C@@H]1[C@@H]2CC[C@]2(C)[C@@H](C3=CC(=O)OC3)CC[C@]12O [Digitoxigenin]
- 11β-HSD2 activity (% of control) (11β-HSD2 [1]): 104±4
- 11β-HSD1 activity (% of control) (11β-HSD1 [2]): 36±2

Compound: C[C@@H]1CC[C@@]2(OC1)O[C@H]1C[C@H]3[C@@H]4CC[C@H]5C[C@@H](O)CC[C@]5(C)[C@H]4CC(=O)[C@]3(C)[C@H]1[C@@H]2C [Hecogenin]
- remaining activity at 20 µM (11β-HSD2 [1]; [5]): 82 ± 2%
- remaining activity at 20 µM (11β-HSD1 [2]): 49 ± 9%

- remaining activity at 20 µM (11β-HSD2 [1]; [5]): 140 ± 40%
- IC50 (11β-HSD1 [3]): 3.8 ± 0.3 µM
Compound: CC(C)OC(=O)C(C)(C)Oc1ccc(C(=O)c2ccc(Cl)cc2)cc1 [fenofibrate]

Compound: CC[C@@H](C(=O)[C@@H](C)[C@@H](O)[C@H](C)CCc1ccc(C)c(O)c1C(=O)O)[C@H]1O[C@](CC)([C@H]2CC[C@](O)(CC)[C@H](C)O2)C[C@@H]1C [lasalocid]
- IC50 (11β-HSD2 [4]): 14 ± 3 µM
- remaining activity at 20 µM (11β-HSD1 [2]): 84 ± 3%
